The numbers were not newly measured in patent publication US20260284233A1, “IMAGING METHODS AND AGENTS FOR GRADING AND STAGING AND SUBSEQUENT TREATMENT OF PROSTATE CANCER IN A PATIENT” (Progenics Pharmaceuticals, Inc., priority 2023, published 2026), which cites them from elsewhere.

The conditions of data set [1]: 333 MBq (9 mCi) dose; data from clinical trials; compared with commonly used tracers for oncologic imaging.
In data set [2] the test system is extracellular domain of PSMA.

Turning to `O=C(O)CC[C@H](NC(=O)N[C@@H](CCCCNC(=O)c1ccc([18F])nc1)C(=O)O)C(=O)O` [piflufolastat F18], the “mean effective radiation dose to the whole body” value in data set [1] is listed as “lower than commonly used tracers for oncologic imaging”. Moreover, the “binding affinity to the extracellular domain of PSMA” value in data set [2] is reported as “high affinity”.
